Source: patent US11786528B2, “Pyrazolopyrimidine compounds as adenosine receptor antagonists” (EXSCIENTIA LTD., priority 2018, dated 2023)

Legend:
[1] = molecular target: human A2a receptors (HEK 293 transfected) (Homo sapiens (Human), UniProt P29274); experiment: Inhibition of cAMP release in HEK-A2aR cells (HTRF, LANCE Ultra cAMP); type: cell-based; details: 3 nM NECA, 10 min
Protocol: Functional activity was measured by inhibition of cAMP release in HEK cells (see below for further details).
To screen A2a receptor inhibitors by HTRF technology, about 500 HEK-A2aR cells (HEK 293 transfected with human A2a receptors) were treated with inhibitors in presence of stimulation buffer (1×HBSS, 5 mM HEPES, 0.1% BSA stabilizer, pH 7.4) supplemented with 30 μM phosphodiesterase inhibitor Rolipram (to prevent cAMP degradation). This stimulation was immediately followed by treatment with 3 nM standard A2aR agonist (NECA) for 10 min under gentle shaking at room temperature. After that, inhibition of cAMP release was determined directly using LANCE Ultra cAMP assay (Perkin Elmer TRF0263).
All analysis was performed using GraphPad Prism 7.0 (GraphPad Software, San Diego, USA). Results are given, as EC50 (M).

[2] = molecular target: human adenosine receptor sub-type A2a (wild type) (Homo sapiens (Human), UniProt P29274); experiment: Affinity for human adenosine A2a receptor by surface plasmon resonance (SPR); type: binding
Protocol: (§1) Affinity for the human adenosine receptor sub-types (A2a, A2b, A1 and A3) was determined by surface plasmon resonance (SPR) using published methodologies (see below for further details).
(§2) Affinity for the human adenosine receptor sub-types (A2a, A2b, A1 and A3) was determined by SPR as described in Aristotelous, T., et al, Methods in Enzymology (2015), Volume 556, Chapter 23, pages 499-525 and Congreve, M., et al, J Med Chem (2012), Vol. 55, pages 1898-1903. The method used was analogous to the method used in Congreve, M., et al (see supplementary page S10) for the A2a receptor, but the wild type receptor was used rather than the proprietary StaR form.

[3] = molecular target: human adenosine receptor sub-type A1 (Homo sapiens (Human), UniProt P30542); experiment: Affinity for human adenosine A1 receptor by SPR; type: binding; details: for IC50: SPR, human A1 receptor; for Relative selectivity for A2a v. A1: from SPR IC50 values, rounded to 2 significant figures
Protocol: as §1, §2

[4] = molecular target: human adenosine receptor sub-type A3 (Homo sapiens (Human), UniProt P0DMS8); experiment: Affinity for human adenosine A3 receptor by SPR; type: binding; details: for IC50: SPR, human A3 receptor; for Relative selectivity for A2a v. A3: from SPR IC50 values, rounded to 2 significant figures
Protocol: as §1, §2

[5] = molecular target: human adenosine receptor sub-type A2b (Homo sapiens (Human), UniProt P29275); experiment: Affinity for human adenosine A2b receptor by SPR; type: binding; details: for IC50: SPR, human A2b receptor; for Relative selectivity for A2a v. A2b: from SPR IC50 values, rounded to 2 significant figures
Protocol: as §1, §2

Chain of human adenosine receptor sub-type A3 (P0DMS8 whole entry): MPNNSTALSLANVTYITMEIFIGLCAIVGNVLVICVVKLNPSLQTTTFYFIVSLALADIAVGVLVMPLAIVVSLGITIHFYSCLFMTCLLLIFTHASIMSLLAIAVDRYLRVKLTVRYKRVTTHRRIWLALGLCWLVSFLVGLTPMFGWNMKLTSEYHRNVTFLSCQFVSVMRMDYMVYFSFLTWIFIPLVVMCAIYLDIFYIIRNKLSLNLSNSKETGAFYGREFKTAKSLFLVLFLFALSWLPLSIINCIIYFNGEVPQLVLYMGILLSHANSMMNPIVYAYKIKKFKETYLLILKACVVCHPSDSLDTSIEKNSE
Chain of human A2a receptors (HEK 293 transfected) (P29274 whole entry): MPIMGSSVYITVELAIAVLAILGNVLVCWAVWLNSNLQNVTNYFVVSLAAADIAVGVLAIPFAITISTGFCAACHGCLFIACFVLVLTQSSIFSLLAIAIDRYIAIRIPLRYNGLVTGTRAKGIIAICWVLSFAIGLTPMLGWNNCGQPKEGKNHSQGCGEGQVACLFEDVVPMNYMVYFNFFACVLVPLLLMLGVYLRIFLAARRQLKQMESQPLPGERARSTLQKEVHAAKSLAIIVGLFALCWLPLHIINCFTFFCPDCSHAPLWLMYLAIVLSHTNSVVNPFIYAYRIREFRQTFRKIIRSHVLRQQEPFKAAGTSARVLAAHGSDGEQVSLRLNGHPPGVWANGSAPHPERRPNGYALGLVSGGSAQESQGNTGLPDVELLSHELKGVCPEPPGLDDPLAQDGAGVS
Chain of human adenosine receptor sub-type A2a (wild type) (P29274 whole entry): as above
Chain of human adenosine receptor sub-type A2b (P29275 whole entry): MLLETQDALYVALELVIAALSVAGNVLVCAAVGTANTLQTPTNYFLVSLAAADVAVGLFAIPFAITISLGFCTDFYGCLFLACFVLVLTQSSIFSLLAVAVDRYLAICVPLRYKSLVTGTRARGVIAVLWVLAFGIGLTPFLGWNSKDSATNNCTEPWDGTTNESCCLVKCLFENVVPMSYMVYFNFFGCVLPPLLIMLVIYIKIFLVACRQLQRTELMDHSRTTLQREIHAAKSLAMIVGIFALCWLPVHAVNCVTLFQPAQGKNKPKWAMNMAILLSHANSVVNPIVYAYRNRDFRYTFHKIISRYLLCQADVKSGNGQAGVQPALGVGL
Chain of human adenosine receptor sub-type A1 (P30542 whole entry): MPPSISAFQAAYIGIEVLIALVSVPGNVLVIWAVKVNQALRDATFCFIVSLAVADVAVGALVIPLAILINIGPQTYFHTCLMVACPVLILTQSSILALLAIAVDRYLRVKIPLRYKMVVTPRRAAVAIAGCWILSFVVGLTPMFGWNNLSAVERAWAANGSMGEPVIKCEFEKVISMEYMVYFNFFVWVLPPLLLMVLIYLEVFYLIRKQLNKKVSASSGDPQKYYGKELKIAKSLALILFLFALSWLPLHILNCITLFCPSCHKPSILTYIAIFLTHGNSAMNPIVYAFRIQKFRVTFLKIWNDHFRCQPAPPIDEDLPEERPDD

| SMILES | EC50 [1] [nM] | IC50 [2] [nM] | further results |
| --- | --- | --- | --- |
| COc1cc(C)ccc1Cn1cc2c(N)nc(-c3ccsn3)nc2n1 [Example 25, 2-[(2-methoxy-4-methylphenyl)methyl]-6-(1,2-thiazol-3-yl)-2H-pyrazolo[3,4-d]pyrimidin-4-amine] | 407 | 18 |  |
| COc1ccccc1Cn1cc2c(N)nc(-c3ncco3)nc2n1 [Example 39, 2-[(2-methoxyphenyl)methyl]-6-(1,3-oxazol-2-yl)-2H-pyrazolo[3,4-d]pyrimidin-4-amine] | 213 | 4.3 |  |
| COc1cccc(Cn2cc3c(N)nc(-c4snnc4C)nc3n2)c1 [Example 7, 2-[(3-methoxyphenyl)methyl]-6-(4-methyl-1,2,3-thiadiazol-5-yl)-2H-pyrazolo[3,4-d]pyrimidin-4-amine] |  | 24 |  |
| Nc1nc(-c2cnccn2)nc2nn(Cc3cccc(C(F)(F)F)c3)cc12 [Example 28, 6-(pyrazin-2-yl)-2-{[3-(trifluoromethyl)phenyl]methyl}-2H-pyrazolo[3,4-d]pyrimidin-4-amine] | 13 | 3.2 |  |
| Nc1nc(-c2nccs2)nc2nn(Cc3nccs3)cc12 [Example 33, 6-(1,3-thiazol-2-yl)-2-[(1,3-thiazol-2-yl)methyl]-2H-pyrazolo[3,4-d]pyrimidin-4-amine] | 2160 | 27 |  |
| Nc1nc(-c2ccsn2)nc2nn(Cc3cccc(CO)c3)cc12 [Example 46, [3-[(4-amino-6-(1,2-thiazol-3-yl)-pyrazolo[3,4-d]pyrimidin-2-yl)methyl]phenyl]methanol] |  | 37 | IC50 [3]: > 100000 nM; Relative selectivity for A2a v. A1 [3]: >2700; IC50 [4]: > 100000 nM; Relative selectivity for A2a v. A3 [4]: >2700; IC50 [5]: > 100000 nM; Relative selectivity for A2a v. A2b [5]: >2700 |
| Nc1nc(-c2ccsn2)nc2nn(Cc3cc(Cl)ccc3Cl)cc12 [Example 20, 2-[(2,5-dichlorophenyl)methyl]-6-(1,2-thiazol-3-yl)-2H-pyrazolo[3,4-d]pyrimidin-4-amine] | 145 | 13 |  |
| COc1ccc(Cn2cc3c(N)nc(-c4cnccn4)nc3n2)cc1 [Example 15, 2-[(4-methoxyphenyl)methyl]-6-(pyrazin-2-yl)-2H-pyrazolo[3,4-d]pyrimidin-4-amine] |  | 253 |  |
| Nc1nc(-c2ccsn2)nc2nn(Cc3nccs3)cc12 [Example 34, 2-[(1,3-thiazol-2-yl)methyl]-6-(1,2-thiazol-3-yl)-2H-pyrazolo[3,4-d]pyrimidin-4-amine] |  | 67 |  |
| Cc1ccc(Cn2cc3c(N)nc(-c4cnccn4)nc3n2)cc1 [Example 12, 2-[(4-methylphenyl)methyl]-6-(pyrazin-2-yl)-2H-pyrazolo[3,4-d]pyrimidin-4-amine] | 199 | 7.9 | IC50 [3]: 7300 nM; Relative selectivity for A2a v. A1 [3]: 920; IC50 [4]: 38800 nM; Relative selectivity for A2a v. A3 [4]: 4900; IC50 [5]: 9000 nM; Relative selectivity for A2a v. A2b [5]: 1100 |
| Cc1ccccc1Cn1cc2c(N)nc(-c3ccsn3)nc2n1 [Example 32, 2-[(2-methylphenyl)methyl]-6-(1,2-thiazol-3-yl)-2H-pyrazolo[3,4-d]pyrimidin-4-amine] | 14 | 10 |  |
| COc1ccccc1Cn1cc2c(N)nc(-c3cnco3)nc2n1 [Example 40, 2-[(2-methoxyphenyl)methyl]-6-(1,3-oxazol-5-yl)-2H-pyrazolo[3,4-d]pyrimidin-4-amine] | 13 | 2 | IC50 [3]: 990 nM; Relative selectivity for A2a v. A1 [3]: 500; IC50 [4]: 46200 nM; Relative selectivity for A2a v. A3 [4]: 23000; IC50 [5]: 1460 nM; Relative selectivity for A2a v. A2b [5]: 730 |
| Nc1nc(-c2cnccn2)nc2nn(Cc3cccc(O)c3)cc12 [Example 3, 3-{[4-amino-6-(pyrazin-2-yl)-2H-pyrazolo[3,4-d]pyrimidin-2-yl]methyl}phenol] |  | 41 |  |
| COc1cccc(Cn2cc3c(N)nc(-c4cnccn4)nc3n2)c1 [Example 2, 2-[(3-methoxyphenyl)methyl]-6-(pyrazin-2-yl)-2H-pyrazolo[3,4-d]pyrimidin-4-amine] | 1530 | 6.7 |  |
| Cc1ccc(Cn2cc3c(N)nc(-c4nccs4)nc3n2)cc1 [Example 14, 2-[(4-methylphenyl)methyl]-6-(1,3-thiazol-2-yl)-2H-pyrazolo[3,4-d]pyrimidin-4-amine] | 54 | 14 |  |
| Cc1ccc(Cn2cc3c(N)nc(-c4ccsn4)nc3n2)cn1 [Example 23, 2-[(6-methylpyridin-3-yl)methyl]-6-(1,2-thiazol-3-yl)-2H-pyrazolo[3,4-d]pyrimidin-4-amine] |  | 29 |  |
| COc1cccc(Cn2cc3c(N)nc(-c4cc(C)no4)nc3n2)c1 [Example 6, 2-[(3-methoxyphenyl)methyl]-6-(3-methyl-1,2-oxazol-5-yl)-2H-pyrazolo[3,4-d]pyrimidin-4-amine] |  | 162 |  |
| COc1cc(Cn2cc3c(N)nc(-c4ccsn4)nc3n2)ccc1C [Example 18, 2-[(3-methoxy-4-methylphenyl)methyl]-6-(1,2-thiazol-3-yl)-2H-pyrazolo[3,4-d]pyrimidin-4-amine] | 218 | 18 |  |
| Nc1nc(-c2ccsn2)nc2nn(Cc3cccc(OC(F)(F)F)c3)cc12 [Example 16, 6-(1,2-thiazol-3-yl)-2-{[3-(trifluoromethoxy)phenyl]methyl}-2H-pyrazolo[3,4-d]pyrimidin-4-amine] | 9 | 8.3 |  |
| Cc1ccc(Cn2cc3c(N)nc(-c4ccsn4)nc3n2)cc1 [Example 13, 2-[(4-methylphenyl)methyl]-6-(1,2-thiazol-3-yl)-2H-pyrazolo[3,4-d]pyrimidin-4-amine] | 128 | 15 |  |

Further molecules by falling IC50 [2], results first:

| EC50 [1] [nM] | IC50 [2] [nM] | SMILES | further results |
| --- | --- | --- | --- |
|  | 61 | Nc1nc(-c2ccsn2)nc2nn(Cc3cccc(O)c3)cc12 [Example 42, 3-{[4-amino-6-(1,2-thiazol-3-yl)-2H-pyrazolo[3,4-d]pyrimidin-2-yl]methyl}phenol] |  |
| 226 | 54 | Nc1nc(-c2ccsn2)nc2nn(Cc3ccc(C(F)(F)F)cc3)cc12 [Example 17, 6-(1,2-thiazol-3-yl)-2-{[4-(trifluoromethyl)phenyl]methyl}-2H-pyrazolo[3,4-d]pyrimidin-4-amine] |  |
|  | 47 | COc1cccc(Cn2cc3c(N)nc(-c4nc(C)cs4)nc3n2)c1 [Example 5, 2-[(3-methoxyphenyl)methyl]-6-(4-methyl-1,3-thiazol-2-yl)-2H-pyrazolo[3,4-d]pyrimidin-4-amine] |  |
| 875 | 41 | COc1cccc(Cn2cc3c(N)nc(-c4cscn4)nc3n2)c1 [Example 9, 2-[(3-methoxyphenyl)methyl]-6-(1,3-thiazol-4-yl)-2H-pyrazolo[3,4-d]pyrimidin-4-amine] |  |
|  | 27 | Nc1nc(-c2ccsn2)nc2nn(Cc3ccccn3)cc12 [Example 22, 2-[(pyridin-2-yl)methyl]-6-(1,2-thiazol-3-yl)-2H-pyrazolo[3,4-d]pyrimidin-4-amine] |  |
| 118 | 15 | Nc1nc(-c2ccsn2)nc2nn(Cc3cccc(F)c3)cc12 [Example 29, 2-[(3-fluorophenyl)methyl]-6-(1,2-thiazol-3-yl)-2H-pyrazolo[3,4-d]pyrimidin-4-amine] |  |
| 232 | 8 | Nc1nc(-c2cnccn2)nc2nn(Cc3cccc(F)c3)cc12 [Example 30, 2-[(3-fluorophenyl)methyl]-6-(pyrazin-2-yl)-2H-pyrazolo[3,4-d]pyrimidin-4-amine] |  |
| 56 | 5.7 | Cc1ccccc1Cn1cc2c(N)nc(-c3cnccn3)nc2n1 [Example 31, 2-[(2-methylphenyl)methyl]-6-(pyrazin-2-yl)-2H-pyrazolo[3,4-d]pyrimidin-4-amine] |  |
| 4 | 5 | Cc1ccc(Cn2cc3c(N)nc(-c4ccsn4)nc3n2)cc1C [Example 21, 2-[(3,4-dimethylphenyl)methyl]-6-(1,2-thiazol-3-yl)-2H-pyrazolo[3,4-d]pyrimidin-4-amine] |  |
| 400 | 4.9 | COc1cccc(Cn2cc3c(N)nc(-c4ncco4)nc3n2)c1 [Example 4, 2-[(3-methoxyphenyl)methyl]-6-(1,3-oxazol-2-yl)-2H-pyrazolo[3,4-d]pyrimidin-4-amine] |  |
| 123 | 2.8 | Cc1cccc(Cn2cc3c(N)nc(-c4ncco4)nc3n2)c1 [Example 26, 2-[(3-methylphenyl)methyl]-6-(1,3-oxazol-2-yl)-2H-pyrazolo[3,4-d]pyrimidin-4-amine] |  |
| 30 | 1.5 | Nc1nc(-c2cnccn2)nc2nn(Cc3cccc(Cl)c3)cc12 [Example 36, 2-[(3-chlorophenyl)methyl]-6-(pyrazin-2-yl)-2H-pyrazolo[3,4-d]pyrimidin-4-amine] |  |
